Measured values as given in the supplement of paper PMC10307832.

Columns and labels:
Assay in all cases: relative viability (nuclei count vs DMSO), 5 days (fraction); higher = more cells survive
[1] = test system: LU99A
Method in brief: (§1)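 Each reported value is a median over duplicate plates. It expresses relative viability: treated-well nuclei count divided by vehicle-well nuclei count. Lung cancer cell lines in 1536-well plates were dosed by pin tool a day after seeding, alone with one drug or with a fixed anchor-drug dose plus five library-drug doses (not always all listed) in √10 steps, and nuclei were counted after 5 days.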

[2] = test system: EPLC-272H
Method in brief: as §1

[3] = test system: NCI-H2085
Method in brief: as §1

[4] = test system: LC-2-ad
Method in brief: as §1

[5] = test system: NCI-H460
Method in brief: as §1

[6] = test system: NCI-H1793
Method in brief: as §1

[7] = test system: NCI-H1792
Method in brief: as §1

[8] = test system: HCC-78
Method in brief: as §1

[9] = test system: LXF-289
Method in brief: as §1

[10] = test system: NCI-H1915
Method in brief: as §1

[11] = test system: NCI-H1944
Method in brief: as §1

[12] = test system: NCI-H1666
Method in brief: as §1

[13] = test system: SK-LU-1
Method in brief: as §1

[14] = test system: NCI-H2009
Method in brief: as §1

[15] = test system: NCI-H358
Method in brief: as §1

[16] = test system: NCI-H2170
Method in brief: as §1

[17] = test system: HOP-62
Method in brief: as §1

[18] = test system: COR-L 105
Method in brief: as §1

[19] = test system: UMC-11
Method in brief: as §1

[20] = test system: HCC-366
Method in brief: as §1

[21] = test system: A-427
Method in brief: as §1

Cc1sc2c(c1C)C(c1ccc(Cl)cc1)=N[C@@H](CC(=O)OC(C)(C)C)c1nnc(C)n1-2 [JQ1] + Cc1nc(NC(=O)N2CCC[C@H]2C(N)=O)sc1-c1ccnc(C(C)(C)C(F)(F)F)c1 [Alpelisib] (partner 2 µM)
relative viability ([1]; first compound 0.04 µM): 0.537
relative viability ([1]; first compound 0.1265 µM): 0.544
relative viability ([1]; first compound 0.4 µM): 0.424
relative viability ([1]; first compound 1.265 µM): 0.307
relative viability ([1]; first compound 4 µM): 0.235
relative viability ([2]; first compound 0.04 µM): 0.897
relative viability ([2]; first compound 0.1265 µM): 0.904
relative viability ([2]; first compound 0.4 µM): 0.889
relative viability ([2]; first compound 1.265 µM): 0.423
relative viability ([2]; first compound 4 µM): 0.376
relative viability ([3]; first compound 0.04 µM): 0.975
relative viability ([3]; first compound 0.1265 µM): 0.844
relative viability ([3]; first compound 0.4 µM): 0.824
relative viability ([3]; first compound 1.265 µM): 0.595
relative viability ([3]; first compound 4 µM): 0.549
relative viability ([4]; first compound 0.04 µM): 0.953
relative viability ([4]; first compound 0.1265 µM): 0.794
relative viability ([4]; first compound 0.4 µM): 0.54
relative viability ([4]; first compound 1.265 µM): 0.289
relative viability ([4]; first compound 4 µM): 0.217
relative viability ([5]; first compound 0.04 µM): 0.47
relative viability ([5]; first compound 0.1265 µM): 0.344
relative viability ([5]; first compound 0.4 µM): 0.257
relative viability ([5]; first compound 1.265 µM): 0.0483
relative viability ([5]; first compound 4 µM): 0.0414
relative viability ([6]; first compound 0.04 µM): 0.653
relative viability ([6]; first compound 0.1265 µM): 0.781
relative viability ([6]; first compound 0.4 µM): 0.558
relative viability ([6]; first compound 1.265 µM): 0.633
relative viability ([6]; first compound 4 µM): 0.696
relative viability ([7]; first compound 0.04 µM): 0.702
relative viability ([7]; first compound 0.4 µM): 0.722
relative viability ([7]; first compound 1.265 µM): 0.411
relative viability ([7]; first compound 4 µM): 0.364
relative viability ([8]; first compound 0.04 µM): 0.336
relative viability ([8]; first compound 0.1265 µM): 0.34
relative viability ([8]; first compound 0.4 µM): 0.281
relative viability ([8]; first compound 1.265 µM): 0.234
relative viability ([8]; first compound 4 µM): 0.252
relative viability ([9]; first compound 0.04 µM): 1.02
relative viability ([9]; first compound 0.1265 µM): 0.983
relative viability ([9]; first compound 0.4 µM): 0.97
relative viability ([9]; first compound 1.265 µM): 0.718
relative viability ([9]; first compound 4 µM): 0.634
relative viability ([10]; first compound 0.04 µM): 1.05
relative viability ([10]; first compound 0.1265 µM): 0.94
relative viability ([10]; first compound 0.4 µM): 0.982
relative viability ([10]; first compound 1.265 µM): 0.613
relative viability ([10]; first compound 4 µM): 0.33
relative viability ([11]; first compound 0.04 µM): 0.709
relative viability ([11]; first compound 0.1265 µM): 0.722
relative viability ([11]; first compound 0.4 µM): 0.715
relative viability ([11]; first compound 1.265 µM): 0.544
relative viability ([11]; first compound 4 µM): 0.397
relative viability ([12]; first compound 0.04 µM): 0.802
relative viability ([12]; first compound 0.1265 µM): 1.04
relative viability ([12]; first compound 0.4 µM): 0.696
relative viability ([12]; first compound 1.265 µM): 0.507
relative viability ([12]; first compound 4 µM): 0.444
relative viability ([13]; first compound 0.04 µM): 1.11
relative viability ([13]; first compound 0.1265 µM): 0.586
relative viability ([13]; first compound 0.4 µM): 0.287
relative viability ([13]; first compound 1.265 µM): 0.167
relative viability ([13]; first compound 4 µM): 0.158
relative viability ([14]; first compound 0.04 µM): 1.09
relative viability ([14]; first compound 0.1265 µM): 0.968
relative viability ([14]; first compound 0.4 µM): 0.697
relative viability ([14]; first compound 1.265 µM): 0.32
relative viability ([14]; first compound 4 µM): 0.268
relative viability ([15]; first compound 0.04 µM): 0.761
relative viability ([15]; first compound 0.1265 µM): 1.05
relative viability ([15]; first compound 0.4 µM): 0.93
relative viability ([15]; first compound 1.265 µM): 0.515
relative viability ([15]; first compound 4 µM): 0.527
relative viability ([16]; first compound 0.04 µM): 0.811
relative viability ([16]; first compound 0.1265 µM): 0.801
relative viability ([16]; first compound 0.4 µM): 0.689
relative viability ([16]; first compound 1.265 µM): 0.403
relative viability ([16]; first compound 4 µM): 0.34
relative viability ([17]; first compound 0.04 µM): 1.2
relative viability ([17]; first compound 0.1265 µM): 0.728
relative viability ([17]; first compound 0.4 µM): 0.332
relative viability ([17]; first compound 1.265 µM): 0.182
relative viability ([17]; first compound 4 µM): 0.09
relative viability ([18]; first compound 0.04 µM): 0.799
relative viability ([18]; first compound 0.1265 µM): 0.642
relative viability ([18]; first compound 0.4 µM): 0.421
relative viability ([18]; first compound 1.265 µM): 0.252
relative viability ([18]; first compound 4 µM): 0.255
relative viability ([19]; first compound 0.04 µM): 0.941
relative viability ([19]; first compound 0.1265 µM): 0.997
relative viability ([19]; first compound 0.4 µM): 0.26
relative viability ([19]; first compound 1.265 µM): 0.197
relative viability ([19]; first compound 4 µM): 0.158
relative viability ([20]; first compound 0.04 µM): 0.405
relative viability ([20]; first compound 0.4 µM): 0.404
relative viability ([20]; first compound 1.265 µM): 0.233
relative viability ([20]; first compound 4 µM): 0.215
relative viability ([21]; first compound 0.04 µM): 1.15
relative viability ([21]; first compound 0.1265 µM): 1.05
relative viability ([21]; first compound 0.4 µM): 1.11
relative viability ([21]; first compound 1.265 µM): 0.967
relative viability ([21]; first compound 4 µM): 0.731
